Test results published in US6525022B1, “Receptor specific atrial natriuretic peptides” (Genentech, Inc., priority 1993, dated 2003).
Where a SMILES comes first, the peptide text is derived from it. Bridges are numbered along the chain shown (N, C = ends).

Target: T1, membrane preparation from rhesus monkey lung (Macaca mulatta, UniProt F7HE88)
T1 construct: from tissue; host or cells: rhesus monkey lung membranes
T1 sequence (F7HE88 33-1061): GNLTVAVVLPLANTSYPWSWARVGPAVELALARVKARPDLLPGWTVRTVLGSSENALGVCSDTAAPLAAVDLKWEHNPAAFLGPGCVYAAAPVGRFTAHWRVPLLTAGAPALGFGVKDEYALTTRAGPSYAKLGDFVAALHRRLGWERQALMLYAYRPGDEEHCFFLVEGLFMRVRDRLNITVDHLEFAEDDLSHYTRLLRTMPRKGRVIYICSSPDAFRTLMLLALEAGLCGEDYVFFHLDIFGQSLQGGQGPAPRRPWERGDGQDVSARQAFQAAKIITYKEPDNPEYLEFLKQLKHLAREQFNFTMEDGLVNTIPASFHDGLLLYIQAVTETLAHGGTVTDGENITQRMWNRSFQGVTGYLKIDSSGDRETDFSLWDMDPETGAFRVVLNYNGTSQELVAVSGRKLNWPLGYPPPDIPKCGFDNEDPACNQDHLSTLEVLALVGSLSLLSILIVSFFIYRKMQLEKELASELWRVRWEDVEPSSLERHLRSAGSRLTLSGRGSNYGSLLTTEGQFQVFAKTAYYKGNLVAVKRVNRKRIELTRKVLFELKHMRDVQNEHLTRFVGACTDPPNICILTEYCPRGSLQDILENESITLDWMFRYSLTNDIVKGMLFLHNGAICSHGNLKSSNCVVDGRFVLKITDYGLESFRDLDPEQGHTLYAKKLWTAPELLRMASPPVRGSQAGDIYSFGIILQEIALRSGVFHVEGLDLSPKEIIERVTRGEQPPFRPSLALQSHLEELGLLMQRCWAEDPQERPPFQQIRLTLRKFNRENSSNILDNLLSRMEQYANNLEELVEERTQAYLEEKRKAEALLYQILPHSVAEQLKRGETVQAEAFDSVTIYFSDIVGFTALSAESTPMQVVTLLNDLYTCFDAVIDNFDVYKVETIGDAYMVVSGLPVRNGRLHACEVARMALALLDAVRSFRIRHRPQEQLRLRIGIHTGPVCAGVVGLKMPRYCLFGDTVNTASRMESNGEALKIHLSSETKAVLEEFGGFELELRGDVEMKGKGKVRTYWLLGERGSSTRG
Assay: cGMP stimulation of rhesus lung membranes
Format: biochemical
Settings: FIG. 13, rhesus monkey lung membranes
Method: For preparation of membranes from Rhesus monkey tissues, frozen tissue was placed between parafilm and broken up into pieces by hitting with a hammer. Tissue was transferred to a 125 mL polypropylene tube containing 100 mL of ice-cold buffer #1 (50 mM HEPES, pH 7.4, 1 mM EDTA, 250 mM sucrose, 0.7 mg/mL pepstatin A, 0.5 mg/mL leupeptin, 1 mM PMSF, and 1 mM phosphoramidon). Tissue was homogenized with a Brinkman polytron on a setting of 5 two times for 10 sec. The sample was placed on ice between homogenizations. 11 mL of 30 mM MgCl2/100 mM NaCl containing 1 mM phosphoramidon was added to the homogenate. The homogenate was spun at 400×g for 10 min at 4° C. in a HB-4 rotor. The supernatant was transferred to another tube and spun as above. The supernatant was passed though four layers of sterile gauze then centrifuged at 30,000×g for 20 min at 4° C. in a 60 Ti rotor. The pellet was resuspended in 3-5 mL of buffer #2 (50 mM HEPES, pH 7.4, 0.1 mM EDTA, 5 mM MgCl2, 100 mM NaCl, 0.7 mg/mL pepstatin A, 0.5 mg/mL leupeptin, 1 mM PMSF, and 1 mM phosphoramidon), using a 7 mL Wheaton Dounce with a B pestle. Aliquots were stored at −80° C. […]
Data analysis. The competition binding curves and cGMP production dose responses were analyzed by the four-parameter logistic equation with the KaleidaGraph™ program (Synergy Software, PA) to obtain estimates of the IC50 or EC50 values. […]

Compound | Potency in stimulation of cGMP production compared with rat ANP
CC[C@H](C)[C@@H]1NC(=O)[C@H](CCCNC(=N)N)NC(=O)[C@H](CC(=O)O)NC(=O)[C@H]([C@@H](C)CC)NC(=O)[C@H](CO)NC(=O)CNC(=O)[C@H]([C@@H](C)O)NC(=O)[C@H](Cc2ccccc2)NC(=O)[C@@H](NC(=O)[C@H](CO)NC(=O)[C@H](CO)NC(=O)[C@H](CCCNC(=N)N)NC(=O)[C@H](CCCNC(=N)N)NC(=O)[C@H](CC(C)C)NC(=O)[C@H](CO)NC(=O)[C@H](CCCNC(=N)N)NC(=O)[C@@H]2CCCN2C(=O)[C@H](C)NC(=O)[C@@H](N)[C@@H](C)O)CSSC[C@@H](C(=O)N[C@@H](CC(N)=O)C(=O)N[C@@H](CO)C(=O)N[C@@H](Cc2ccccc2)C(=O)N[C@@H](CCCNC(=N)N)C(=O)N[C@@H](Cc2ccc(O)cc2)C(=O)O)NC(=O)CNC(=O)[C@H](CC(C)C)NC(=O)CNC(=O)[C@H](CO)NC(=O)[C@H](CCC(N)=O)NC(=O)[C@H](C)NC(=O)[C@H](CCCNC(=N)N)NC1=O [ANF 76] (H-TAPRSLRRSSCFTGSIDRIRAQSGLGCNSFRY-OH; disulfide 11-27; C-terminus assumed) | more potent than rat ANP
CC[C@H](C)[C@@H]1NC(=O)[C@H](CCCNC(=N)N)NC(=O)[C@H](CC(=O)O)NC(=O)[C@H]([C@@H](C)CC)NC(=O)[C@H](CO)NC(=O)CNC(=O)[C@H]([C@@H](C)O)NC(=O)[C@H](Cc2ccccc2)NC[C@@H](NC(=O)[C@H](CO)NC(=O)[C@H](CO)NC(=O)[C@H](CCCNC(=N)N)NC(=O)[C@H](CCCNC(=N)N)NC(=O)[C@H](CC(C)C)NC(=O)[C@@H](N)CO)CSSC[C@@H](C(=O)N[C@@H](CC(N)=O)C(=O)N[C@@H](CO)C(=O)N[C@@H](Cc2ccccc2)C(=O)N[C@@H](CCCNC(=N)N)C(=O)N[C@@H](Cc2ccc(O)cc2)C(=O)O)NC(=O)CNC(=O)[C@H](CC(C)C)NC(=O)CNC(=O)[C@H](CO)NC(=O)[C@H](CCC(N)=O)NC(=O)[C@H](C)NC(=O)[C@H](CCCNC(=N)N)NC1=O [ANF 84] | more potent than rat ANP
